Laboratory results taken from PubChem BioAssay (NCI).
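GI50: concentration for 50% inhibition of growth. TGI: concentration producing complete growth inhibition.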

Legend:
Test in all cases: DTP human tumour cell line panel, 384-well format
[1] = test system: EKVX NSCLC
[2] = test system: OVCAR-3 ovarian
[3] = test system: CCRF-CEM leukemia
[4] = test system: MALME-3M melanoma
[5] = test system: KM12 colon
[6] = test system: MCF7 breast
[7] = test system: M14 melanoma
[8] = test system: HT29 colon
[9] = test system: SR leukemia
[10] = test system: MDA-MB-231 breast
[11] = test system: LOX IMVI melanoma
[12] = test system: OVCAR-4 ovarian
[13] = test system: SK-MEL-5 melanoma
[14] = test system: RPMI-8226 leukemia
[15] = test system: A549 NSCLC
[16] = test system: SK-MEL-28 melanoma
[17] = test system: TK-10 renal
[18] = test system: SNB-75 CNS
[19] = test system: HS 578T breast
[20] = test system: NCI-H460 NSCLC
[21] = test system: NCI-H23 lung
[22] = test system: UO-31 renal
[23] = test system: K-562 leukemia
[24] = test system: PC-3 prostate
[25] = test system: HOP-62 NSCLC
[26] = test system: MOLT-4 leukemia
[27] = test system: ACHN renal
[28] = test system: A498 renal
[29] = test system: DU-145 prostate
[30] = test system: IGROV1 ovarian
[31] = test system: SN12C renal
[32] = test system: SF-295 CNS
[33] = test system: OVCAR-5 ovarian
[34] = test system: NCI-H226 lung
[35] = test system: SK-OV-3 ovarian
[36] = test system: NCI/ADR-RES ovarian
[37] = test system: SW-620 colon
[38] = test system: HCC-2998 colon
[39] = test system: HCT-116 colon
[40] = test system: MDA-MB-468 breast
[41] = test system: HCT-15 colon
[42] = test system: SF-268 CNS
[43] = test system: UACC-62 melanoma
[44] = test system: MDA-MB-435 melanoma
[45] = test system: CAKI-1 renal
[46] = test system: 786-0 renal
[47] = test system: UACC-257 melanoma
[48] = test system: U251 glioblastoma
[49] = test system: NCI-H322M lung
[50] = test system: T-47D breast
[51] = test system: NCI-H522 lung
[52] = test system: HOP-92 NSCLC
[53] = test system: SNB-19 CNS
[54] = test system: BT-549 breast
[55] = test system: RXF 393 renal
[56] = test system: HL-60(TB) leukemia
[57] = test system: SK-MEL-2 melanoma
[58] = test system: SF-539 CNS
[59] = test system: COLO 205 colon

Structure (SMILES): Cc1ccc(/C=N/NC(=O)c2ccccc2Oc2ccccc2)o1
- GI50 [1]: 18.1 µM
- TGI [1]: 32.5 µM
- GI50 [2]: 16.3 µM
- TGI [2]: 30.4 µM
- GI50 [3]: 2 µM
- TGI [3]: 4.13 µM
- GI50 [4]: 18.6 µM
- TGI [4]: 32.7 µM
- GI50 [5]: 0.829 µM
- TGI [5]: 19.5 µM
- GI50 [6]: 4.85 µM
- TGI [6]: 17.1 µM
- GI50 [7]: 5.39 µM
- TGI [7]: 18 µM
- GI50 [8]: 17.9 µM
- TGI [8]: 32 µM
- GI50 [9]: 1.73 µM
- TGI [9]: 3.24 µM
- GI50 [10]: 18.3 µM
- TGI [10]: 34 µM
- GI50 [11]: 19.5 µM
- TGI [11]: 33.7 µM
- GI50 [12]: 10.7 µM
- TGI [12]: 24.4 µM
- GI50 [13]: 17.1 µM
- TGI [13]: 30.9 µM
- GI50 [14]: 18.6 µM
- TGI [14]: 32.7 µM
- GI50 [15]: 17.9 µM
- TGI [15]: 31.9 µM
- GI50 [16]: 18.6 µM
- TGI [16]: 32.6 µM
- GI50 [17]: 4.22 µM
- TGI [17]: 16.7 µM
- GI50 [18]: 17.1 µM
- TGI [18]: 31.1 µM
- GI50 [19]: 16.6 µM
- TGI [19]: 30.3 µM
- GI50 [20]: 16.6 µM
- TGI [20]: 30.5 µM
- GI50 [21]: 4.32 µM
- TGI [21]: 16.1 µM
- GI50 [22]: 3.78 µM
- TGI [22]: 13.1 µM
- GI50 [23]: 3.71 µM
- TGI [23]: 13.5 µM
- GI50 [24]: 17.6 µM
- TGI [24]: 32 µM
- GI50 [25]: 6.21 µM
- TGI [25]: 19 µM
- GI50 [26]: 1.75 µM
- TGI [26]: 3.2 µM
- GI50 [27]: 3.35 µM
- TGI [27]: 12.2 µM
- GI50 [28]: 17.3 µM
- TGI [28]: 31.2 µM
- GI50 [29]: 6.77 µM
- TGI [29]: 19.9 µM
- GI50 [30]: 2.49 µM
- TGI [30]: 10.7 µM
- GI50 [31]: 4.87 µM
- TGI [31]: 17 µM
- GI50 [32]: 4.52 µM
- TGI [32]: 16.4 µM
- GI50 [33]: 6.64 µM
- TGI [33]: 20 µM
- GI50 [34]: 6.68 µM
- TGI [34]: 19.2 µM
- GI50 [35]: 16.8 µM
- TGI [35]: 31.2 µM
- GI50 [36]: 17.5 µM
- TGI [36]: 31.7 µM
- GI50 [37]: 19.2 µM
- TGI [37]: 33.4 µM
- GI50 [38]: 17.8 µM
- TGI [38]: 31.7 µM
- GI50 [39]: 17.7 µM
- TGI [39]: 31.6 µM
- GI50 [40]: 1.88 µM
- TGI [40]: 3.84 µM
- GI50 [41]: 17.3 µM
- TGI [41]: 31.6 µM
- GI50 [42]: 18.9 µM
- TGI [42]: 33.3 µM
- GI50 [43]: 4.66 µM
- TGI [43]: 16.5 µM
- GI50 [44]: 18.8 µM
- TGI [44]: 32.9 µM
- GI50 [45]: 17.6 µM
- TGI [45]: 31.6 µM
- GI50 [46]: 8.44 µM
- TGI [46]: 20.8 µM
- GI50 [47]: 17.3 µM
- TGI [47]: 31.2 µM
- GI50 [48]: 18 µM
- TGI [48]: 32 µM
- GI50 [49]: 19.1 µM
- TGI [49]: 34.5 µM
- GI50 [50]: 16.2 µM
- TGI [50]: 29.8 µM
- GI50 [51]: 16.2 µM
- TGI [51]: 29.7 µM
- GI50 [52]: 4.72 µM
- TGI [52]: 16.4 µM
- GI50 [53]: 12.1 µM
- TGI [53]: 25 µM
- GI50 [54]: 19.5 µM
- TGI [54]: 33.7 µM
- GI50 [55]: 16.9 µM
- TGI [55]: 30.6 µM
- GI50 [56]: 19.4 µM
- TGI [56]: 33.6 µM
- GI50 [57]: 3.99 µM
- TGI [57]: 7.04 µM
- GI50 [58]: 18.1 µM
- TGI [58]: 32 µM
- GI50 [59]: 5.62 µM
- TGI [59]: 17.3 µM
